The text below walks through data of paper PMC9924089, “In Silico Discovery of Small Molecule Modulators Targeting the Achilles’ Heel of SARS-CoV-2 Spike Protein” (ACS Central Science, 2023).

The target of the first experiment is prototypic SARS-CoV-2 spike protein (Severe acute respiratory syndrome coronavirus 2, UniProt P0DTC2, K986P/R682S/R683G/R685G/V987P). As to the kind of experiment: biochemical. In kind it is binding.
Consider `Cc1nc(CSCCC(=O)N2CCc3ccc([N+](=O)[O-])cc32)cs1` [SPC-2], for which the “Response at 50 μM (%)” value stood at 40.2%. Still for that read-out and setting: with `COc1ccc(-c2cc(COC(=O)CC3CCCCC3)no2)cc1` [F2496-0660] the figure was 10.1. Still for that read-out and setting: the figure for `c1csc(-c2noc(CSc3nnc(NC4CC4)s3)n2)c1` [T6141058] is 14.3; for `O=C(CCn1ccc(=O)[nH]c1=O)N1CC(c2nc(-c3cccc(Cl)c3)no2)C1` [F6064-2602] it is 22.3%.

As to `Cn1c(SCc2nc(-c3ccccc3)no2)nnc1-c1ccco1` [STL416744], the “Response at 50 μM (%)” value is listed as 30.3%. Consider `COCCNC(=O)N1CC(c2nc(-c3cccc(Cl)c3)no2)C1` [F6064-2993], for which the “Response at 50 μM (%)” value is listed as 9.8. On to `CC(=O)Nc1ccc(Oc2ccc3c(c2)C(=O)N(c2cccc(C)c2)C3=O)cc1` [0584-0466], for which the “Response at 50 μM (%)” value is recorded as 21.5%.

For `O=C(Cc1noc2ccccc12)N1CC(c2nc(-c3ccc[nH]c3=O)no2)C1` [F6064-7687], the “Response at 50 μM (%)” value was 9.3.

For the compound `Cc1ccc(-c2nc(CSc3nnc(-c4ccco4)o3)no2)cc1` [T6363271], the “Response at 50 μM (%)” value was determined as 2.9. The same measure, in the same setting: the figure for `CC(=O)n1ccc2ccc(C(=O)CSc3nnc(-c4cccnc4)n3C)cc21` [K822-0272] is 13.8; for `O=C(Oc1ccc(OC(=O)c2c(Cl)nsc2Cl)cc1)c1c(Cl)nsc1Cl` [8002-0592] it is 14.4. On the same count and under the same terms, with `O=S(=O)(NCC#CCOc1cccc(C(F)(F)F)c1)c1cccs1` [F6412-1980] the figure was 27.1%. On to `COc1cccc(-c2ncc(CNC(=O)CC3NC(=O)NC3=O)s2)c1` (stereo not drawn) [compound 42995570], for which the “Response at 50 μM (%)” value stood at 16. Still for that read-out and setting: the figure for `c1ccc(-c2nnc(SCCCSc3nnc(-c4ccccc4)o3)o2)cc1` [T6013936] is 17.1. Consider `CCCCCCCC/C=C\CCCCCCCC(=O)O` [OA, oleic acid, reference compound], for which the Kd (as a rule, the concentration at which binding is half-saturated) stood at 28.5 µM.

As for `O=C(CCn1ccc(=O)[nH]c1=O)NCc1cc(-c2ccccc2F)on1` [F2493-3278], the “Response at 50 μM (%)” value amounted to 18.5. For the compound `CSc1nc(N)n2nc(C(C)(C)C)cc2n1` [compound 6536], the “Response at 50 μM (%)” value is 23.3%.

Regarding `CCCCC/C=C\C/C=C\CCCCCCCC(=O)O` [LA, linoleic acid, reference compound], the Kd was found to be 34.2 µM. Take `COc1ccc(-n2nnc3c(SCC(=O)OCc4ccccc4)ncnc32)cc1` [F0682-1220]: the “Response at 50 μM (%)” value is listed as 9. Same read-out and setting: with `O=C(COC(=O)c1ccc(Cl)cc1Cl)c1ccc(OC(=O)c2ccco2)cc1` [AK-918/41968204] the figure was 5.4; with `CCCCOC(=O)c1ccc(OC(=O)c2cccc3ccccc23)cc1` [AN-652/43024838], 5.6; with `Cc1cc(C(=O)CSc2nnc(-c3nnc(-c4ccccc4)o3)o2)c(C)n1C` [T6388553], 18.3.

For `CCC(=O)Nc1ccc(C(=O)OCC(=O)c2ccc(Cl)c(Cl)c2)cc1` [AJ-292/41945407], the “Response at 50 μM (%)” value worked out at 7.7. On the same count and under the same terms, the figure for `O=C(COc1ccc(-c2cnc3ccccc3n2)cc1)c1cccs1` [6420-3607] is 11.9; for `CCCCCC(=O)Oc1ccc(/N=N/c2ccc(C#N)cc2)cc1` [0054-0201] it is 23.5%; for `Cc1nc(C(F)(F)F)ccc1-c1nnc(SCc2ccc(OC(F)(F)F)cc2)o1` [compound 9502] it is 26.3%. Same read-out and setting: the figure for `N#Cc1ccc(/N=C/c2cc([N+](=O)[O-])ccc2Cl)cc1` [AE-641/08724023] is 19; for `CN(CCc1cnn(C)c1)C(=O)c1ccc(-c2ccccc2Cl)o1` [SPC-4] it is 30.4%. Turning to `CCOc1ccc(C(=O)COC(=O)c2ccc(NC(C)=O)cc2)cc1` [AK-918/42180074], the “Response at 50 μM (%)” value was found to be 5.7.

As to `COc1ccc(/C=C/c2nn3c(Cc4ccccc4F)nnc3s2)cc1` [AP-501/43286897], the “Response at 50 μM (%)” value was found to be 17.8.

Turning to `Cn1c(CSc2nc3ccccc3s2)nnc1SCC(=O)NCCO` [C592-3799], the “Response at 50 μM (%)” value is 25.5%. Same read-out and setting: the figure for `O=C(CCn1ccc(=O)[nH]c1=O)OCc1cc(-c2ccco2)on1` [F2496-3133] is 21.1%; for `O=C(OCc1cc(-c2ccc(F)cc2F)on1)c1ccc2[nH]cnc2c1` [F2496-3037] it is 3.6; for `COc1cccc(C(=O)COC(=O)c2ccc(O)cc2O)c1` [SPC-1] it is 46%.

For `COc1ccccc1-c1cc2c(=O)n(Cc3nc(-c4ccccn4)no3)ccn2n1` [F3382-3571], the “Response at 50 μM (%)” value worked out at 8.9.

`O=C(CSc1ccncc1)OCc1cc(-c2ccccc2F)on1` [F2496-3101]: the “Response at 50 μM (%)” value stood at 14. In the case of `CC(=O)Nc1ccc(-c2cn3cc(Sc4ccccc4)ccc3n2)cc1` [AQ-776/42801545], the “Response at 50 μM (%)” value worked out at 19.5. Still for that read-out and setting: with `CCCCOC(=O)c1ccc(NC(=O)c2cc(=O)c(OC)co2)cc1` [F5449-0108] the figure was 15.8; with `Cn1c(SCc2nc(-c3ccccc3Cl)no2)nnc1-c1ccccc1F` [SPC-3], 51.8%. For `O=c1/c(=C/c2ccc(-c3cccc([N+](=O)[O-])c3)o2)sc2nc(-c3cccs3)nn12` [5629-0125], the “Response at 50 μM (%)” value was 16. Take `COc1ccc(-c2nnc(SCc3nc(-c4ccco4)no3)o2)cc1` [T6080959]: the “Response at 50 μM (%)” value is 21.2%. Still for that read-out and setting: the figure for `CCCCCCCCOc1ccc(OC(=O)c2ccco2)cc1` [0606-5952] is 24.2%. Still for that read-out and setting: with `CN(CCCO)C(=O)c1coc(COc2cccc(F)c2F)n1` [compound 11547730] the figure was 14.9. The same measure, in the same setting: the figure for `NCc1cncc(-c2ccccc2)c1` [F1905-6556] is 14.1.

Take `COc1cccc(-c2noc(CCC(=O)Nc3cccnc3)n2)c1` [SPC-6]: the “Response at 50 μM (%)” value stood at 35.9%. For `Cc1nc(C)c(-c2nnc(SCc3nc(-c4cccs4)oc3C)o2)s1` [T6037875], the “Response at 50 μM (%)” value is reported as 18.3. With `COc1cccc(/C=C2/N=C(c3ccc(NC(C)=O)cc3)OC2=O)c1` [2082-0203], the “Response at 50 μM (%)” value is given as 17.9. As to `CCCCCCCOc1ccc(C2=N/C(=C/c3ccco3)C(=O)O2)cc1` [0782-7025], the “Response at 50 μM (%)” value worked out at 12.8. On the same count and under the same terms, with `COC(=O)c1ccc2c(c1)C(=O)/C(=C/c1ccc(-c3cccc(C(F)(F)F)c3)o1)O2` [C711-0480] the figure was 23.4%; with `CCCOC(=O)c1ccc(OCC(=O)c2ccc(O)cc2O)cc1` [F3139-1680], 13.9; with `O=C(OCc1cc(-c2cc3ccccc3o2)on1)c1ccc2[nH]cnc2c1` [F2496-3295], 16.2. Same read-out and setting: the figure for `CCN(CC)c1ccc(/C=N/c2ccc(S(N)(=O)=O)cc2)cc1` [2166-0281] is 21; for `COc1ccc(-c2noc(CSc3nnc(-c4ccccc4)n3C)n2)cc1` [SPC-5] it is 46.1%; for `O=C(Cc1cccnc1)N1CC(n2cc(COc3ccccc3)nn2)C1` [F6514-4048] it is 10.5. Turning to `Cc1cccc(-c2noc(CCc3nc(C4CCOC4)no3)n2)c1` (stereo not drawn) [compound 18297954], the “Response at 50 μM (%)” value is recorded as 16.5.

The target of the next experiment is SARS-CoV-2 spike protein (Severe acute respiratory syndrome coronavirus 2, UniProt P0DTC2, K986P/R682S/R683G/R685G/V987P).
Test: not given
Regarding `O=C(O)CCCCCC(=O)N1CCc2ccc([N+](=O)[O-])cc21` [SPC-14], the “particles in the closed state (three RBD down)” value was “about 48%” and the “particles in the open state with one RBD up” value turned out to be 52%.
